Test results taken from ChEMBL document CHEMBL5150003, “Why All the Fury over Furin?” (J Med Chem, 2022).
Numbered stars: 1 amine (or outer) side, 2 acyl side, 3 side chain; on linkers, the order of the positions; unused ones are H or OH. Bridge positions count the residues as written; N and C are the ends. Square brackets hold non-standard residues; d marks the D form. Peptide text beside a SMILES is read from it. * marks the point of attachment. NH(4-amidinobenzyl) = N=C(N)c1ccc(CN*)cc1; 2Nal = N[C@@H](Cc1ccc2ccccc2c1)C(=O)O; Glutaryl = O=C(CCCC(=O)[*:2])[*:1]; Suc = O=C(CCC(=O)[*:2])[*:1]; X3 = NC(N)=NC/C=C/CN*

Legend:
Furin [1] = biological target: T1, Furin (Homo sapiens, UniProt P09958); test: Inhibition of furin (unknown origin)
[2] = Cytotoxicity against chinese hamster CHO-DG44 cells assessed as cell viability at 100 uM and measured after 2 hrs by WST-1 method; format: toxicity, cell-based, Cricetulus griseus; conditions: read-out: Activity
[3] = Cytotoxicity against human HT-1080 cells assessed as cell viability at 100 uM and measured after 2 hrs by WST-1 method; format: toxicity, cell-based; conditions: read-out: Activity
[4] = Inhibition of migration of human HT-1080 cells at 100 uM measured by calcein AM/ethidium homodimer (EthD-1) staining method; format: functional
[5] = Protective activity against Pseudomonas aeruginosa exotoxin A-induced cytotoxicity in chinese hamster CHO-DG44 cells measured by WST-1 method; format: functional, Cricetulus griseus; conditions: dose 100 µM
RAW264.7 = test: Protective activity against Anthrax toxin-induced cytotoxicity in mouse RAW264.7 cells measured by WST-1 method; format: functional; conditions: dose 100 µM
Furin [6] = biological target: T1, Furin; test: Inhibition of Recombinant vaccinia-expressed furin (unknown origin) using Pyr-RTKR-MCA as substrate and measured by fluorescence based assay
Furin [7] = biological target: T1, Furin; test: Inhibition of furin (unknown origin) using Pyr-RTKR-MCA as substrate incubated for 30 mins and measured by FRET assay
Furin [8] = biological target: T1, Furin; test: Inhibition of furin in human U2OS cells measured after 24 hrs by fluorescence assay; format: cell-based
Mus musculus [9] = test: Antifibrotic activity against bleomycin-induced mouse lung fibrosis model assessed as inhibition of TGF-beta secretion in lung at 10 mg/kg, po administered once daily; format: functional
Mus musculus [10] = test: Antifibrotic activity against bleomycin-induced mouse lung fibrosis model assessed as inhibition of hydroxyproline content in lung at 10 mg/kg, po administered once daily; format: functional
[11] = Stability in mouse plasma assessed as half-life; format: ADME, cell-free

T1 sequence (P09958 whole entry): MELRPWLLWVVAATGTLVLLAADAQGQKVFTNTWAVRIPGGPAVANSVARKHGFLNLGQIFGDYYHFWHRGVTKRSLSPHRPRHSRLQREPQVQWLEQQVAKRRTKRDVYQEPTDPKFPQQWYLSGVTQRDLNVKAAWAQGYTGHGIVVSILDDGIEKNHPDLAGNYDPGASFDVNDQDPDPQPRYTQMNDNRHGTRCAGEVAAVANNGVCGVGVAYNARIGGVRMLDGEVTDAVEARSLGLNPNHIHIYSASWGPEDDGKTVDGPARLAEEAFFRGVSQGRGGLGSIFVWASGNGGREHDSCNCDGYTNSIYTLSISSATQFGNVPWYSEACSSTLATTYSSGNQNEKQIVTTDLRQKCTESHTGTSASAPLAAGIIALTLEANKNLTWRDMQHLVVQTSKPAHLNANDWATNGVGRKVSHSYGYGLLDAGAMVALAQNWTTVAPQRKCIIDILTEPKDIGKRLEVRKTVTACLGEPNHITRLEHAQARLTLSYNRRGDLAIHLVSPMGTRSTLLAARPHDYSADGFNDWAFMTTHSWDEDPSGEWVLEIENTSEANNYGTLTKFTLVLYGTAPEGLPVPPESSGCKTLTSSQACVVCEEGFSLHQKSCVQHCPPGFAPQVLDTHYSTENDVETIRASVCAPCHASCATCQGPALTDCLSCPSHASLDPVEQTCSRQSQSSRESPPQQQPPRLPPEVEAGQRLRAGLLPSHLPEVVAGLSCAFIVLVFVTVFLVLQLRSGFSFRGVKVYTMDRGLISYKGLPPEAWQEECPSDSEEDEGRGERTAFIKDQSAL

Work on `CC(C)(C)[C@H](NC(=O)[C@H](CCCNC(=N)N)NC(=O)Cc1ccc(CNC(=N)N)cc1)C(=O)N[C@@H](CCCN)C(=O)NCc1ccc(C(=N)N)cc1` yielded a Ki (Furin [1]) of 0.0088 nM.

For `N=C(N)Nc1ccc(O[C@H]2C[C@@H](Oc3ccc(NC(=N)N)cc3NC(=N)N)[C@H](NC(=N)N)C[C@@H]2NC(=N)N)c(NC(=N)N)c1`, the viability at 2 h, 100 µM [2] was over 90%, the viability at 2 h, 100 µM [3] was over 90% and the inhibition at 100 µM [4] was 60%. The Activity [5] was over 70% and the Activity (RAW264.7) was over 80%.

In the case of `CC(C)[C@H](NC(=O)[C@H](CCCNC(=N)N)NC(=O)[C@@H](N)CCCNC(=N)N)C(=O)N[C@@H](CCCNC(=N)N)C(=O)NCc1ccc(C(=N)N)cc1` (H-RRVR-{NH(4-amidinobenzyl)}), the Ki (Furin [1]) is reported as 0.11 nM.

Compound `N=C(N)Nc1ccc(O[C@H]2C[C@@H](Oc3ccc(NC(=N)N)cc3NC(=N)N)[C@H](NC(=N)N)C[C@@H]2NC(=N)N)cc1` has a Ki (Furin [6]) of 89 nM, a viability at 2 h, 100 µM [2] of over 90% and a viability at 2 h, 100 µM [3] of over 90%. The inhibition at 100 µM [4] was 30%, the Activity [5] was over 30% and the Activity (RAW264.7) was over 80%.

Work on `CC(C)(C)[C@@H]1NC(=O)[C@H](CCCNC(N)N)NC(=O)[C@H](CCCNC(=N)N)NC(=O)[C@@H](N)CCCCNC(=O)CCN2CCN(CCC(=O)NCCCC[C@@H](C(=O)NCc3ccc(C(=N)N)cc3)NC1=O)CC2` yielded a Ki (Furin [1]) of 0.491 nM.

Compound `N=C(N)c1ccc(/N=N/Nc2ccc(C(=N)N)cc2)cc1` [DIMINAZENE] has a Ki (Furin [7]) of 5420 nM.

With `N=C(N)N[C@H]1C[C@@H](NC(=N)N)[C@H](Oc2ccc(C(=N)N)c3ccccc23)C[C@@H]1Oc1ccc(C(=N)N)c2ccccc12` the Ki (Furin [7]) was 50 nM.

Compound `CN1CCN(c2cnc(Oc3cc(CN4CCC(CC(=O)O)CC4)cc(-c4cc(Cl)cc(Cl)c4)n3)cn2)CC1` has a pXC50 (Furin [8]) of 7.3, an inhibition in vivo at 10 mg/kg (Mus musculus [9]) of 22% and an inhibition in vivo at 10 mg/kg (Mus musculus [10]) of 4%.

`N=C(N)N[C@H]1C[C@@H](NC(=N)N)[C@H](Oc2ccc(C(=N)N)cn2)C[C@@H]1Oc1ccc(C(=N)N)cn1` showed a Ki (Furin [7]) of 20 nM.

`CC(=O)NCC1CCN(Cc2cc(Oc3cnc(N4CCN(CCC(C)C(=O)O)CC4)nc3)nc(-c3cc(Cl)cc(Cl)c3)c2)CC1` (stereo unspecified) gave a pXC50 (Furin [8]) of 8.3, an inhibition in vivo at 10 mg/kg (Mus musculus [9]) of 75% and an inhibition in vivo at 10 mg/kg (Mus musculus [10]) of 62%.

Work on `N=C(N)Nc1ccc(OCCCOc2ccc(NC(=N)N)cc2)cc1` yielded a Ki (Furin [6]) of 8300 nM, a viability at 2 h, 100 µM [2] of 60% and a viability at 2 h, 100 µM [3] of 60%. The inhibition at 100 µM [4] was under 40%.

`N=C(N)Nc1ccc(OC2CCCC(Oc3ccc(NC(=N)N)cc3)C2)cc1` (stereo unspecified) showed a Ki (Furin [6]) of 5500 nM, a viability at 2 h, 100 µM [2] of 70% and a viability at 2 h, 100 µM [3] of 70%. The inhibition at 100 µM [4] was 40% and the Activity (RAW264.7) was 30%.

`Cc1cc(O[C@H]2C[C@@H](Oc3ccc(C(=N)N)c(C)c3)[C@H](NC(=N)N)C[C@@H]2NC(=N)N)ccc1C(=N)N` showed a Ki (Furin [7]) of 10 nM.

Work on `N=C(N)Nc1ccc(O[C@H]2C[C@@H](Oc3ccc(NC(=N)N)cn3)[C@H](NC(=N)N)C[C@@H]2NC(=N)N)nc1` yielded a viability at 2 h, 100 µM [2] of over 90%, a viability at 2 h, 100 µM [3] of over 90% and an Activity [5] of 100%. The Activity (RAW264.7) was 80%.

In the case of `N=C(N)Nc1ccc(O[C@H]2C[C@@H](Oc3ccc(NC(=N)N)c4ccccc34)[C@H](NC(=N)N)C[C@@H]2NC(=N)N)c2ccccc12`, the viability at 2 h, 100 µM [2] is reported as over 90%, the viability at 2 h, 100 µM [3] is reported as over 90% and the inhibition at 100 µM [4] is reported as 40%. It also gave an Activity [5] of 30% and an Activity (RAW264.7) of 80%.

With `O=C(O)CC1CCN(Cc2cc(Oc3cnc(N4CCN(CCO)CC4)nc3)nc(-c3cc(Cl)cc(Cl)c3)c2)CC1` the pXC50 (Furin [8]) was 7.6, the inhibition in vivo at 10 mg/kg (Mus musculus [9]) was 31% and the inhibition in vivo at 10 mg/kg (Mus musculus [10]) was 11%.

Compound `CC(=O)N[C@@H](CCCN=C(N)N)C(=O)N[C@@H](C)C(=O)N[C@@H](CCCN=C(N)N)C(=O)N[C@@H](CCCN=C(N)N)C(=O)N[C@@H](CCCN=C(N)N)C(=O)N[C@@H](CCCCN)C(=O)N[C@@H](CCCCN)C(=O)NC/C=C/CN=C(N)N` (Ac-RARRRKK-X3) has a Ki (Furin [1]) of 7 nM and a half-life [11] of 3.3 h.

`N=C(N)NCCC[C@@H]1NC(=O)CCCC(=O)NCCCC[C@@H](C(=O)N[C@@H](CCCNC(=N)N)C(=O)NCc2ccc(C(=N)N)cc2)NC(=O)[C@H](CCCNC(=N)N)NC(=O)[C@H](CCCNC(=N)N)NC1=O` (RRRKR-{NH(4-amidinobenzyl)}; linker N-4 via Glutaryl) showed a Ki (Furin [1]) of 0.68 nM.

Work on `N=C(N)NCCC[C@@H]1NC(=O)CCCC(=O)NCCCC[C@@H](C(=O)N[C@@H](CCCCN)C(=O)NCc2ccc(C(=N)N)cc2)NC(=O)[C@H](CCCNC(=N)N)NC1=O` (RRKK-{NH(4-amidinobenzyl)}; linker N-3 via Glutaryl) yielded a Ki (Furin [1]) of 1.05 nM.

Compound `N=C(N)NCCC[C@H](NC(=O)[C@@H]1CCCCNC(=O)CCC(=O)N[C@@H](Cc2ccccc2)C(=O)N[C@@H](Cc2ccc3ccccc3c2)C(=O)N[C@@H](CCCNC(=N)N)C(=O)N[C@@H](CCCNC(=N)N)C(=O)N[C@@H](CCCNC(=N)N)C(=O)N[C@@H](CCCNC(=N)N)C(=O)N1)C(=O)NCc1ccc(C(=N)N)cc1` (F[2Nal]RRRRKR-{NH(4-amidinobenzyl)}; linker N-7 via Suc) has a Ki (Furin [1]) of 0.0538 nM.

`N=C(N)N[C@H]1C[C@@H](NC(=N)N)[C@H](Oc2ccc(C(=N)N)cc2Cl)C[C@@H]1Oc1ccc(C(=N)N)cc1Cl` gave a Ki (Furin [7]) of 5 nM.
